Source: patent US8334316B2, “Substituted organosulfur compounds and methods of using thereof” (ACEA Biosciences, Inc., priority 2004, dated 2012)
Several values for one entry are separate records, joined by “and”; a condition that tells them apart may be missing. Equal values may be shown once. Marks after values point to notes of the source that are not given here.

Assays:
[1] = tested on: P388 lymphocytic leukemia; test: Murine P388 lymphocytic leukemia model (intraperitoneal transplantation), life span; assay type: in vivo, mouse; details: 50 mg/kg/d iv x7 qd
HCT-8 human colon cancer = HCT-8 human colon cancer xenograft in nude mice (Example 3); assay type: in vivo; details: 50 mg/kg/d iv x7 qd
Source text: Both male and female mice were used. […] Test control. […] Preparation and Administration of Test Compounds. […] For human tumor xenograft model, all used materials, including animal food, animal cage, supporting materials and apparatus contacted by animals, were high-pressure sterilized. Nude mice were maintained in laminar flow shelves under SPF condition. After tumor transplantation, mouse weight and tumor size in each compound dosage group were dynamically monitored and plotted.

[2] = tested on: ao10/17 human ovarian cancer; test: ao10/17 human ovarian cancer xenograft in nude mice (Example 4); assay type: in vivo; details: for Body weight of mice / Mice with palpable tumor / total mice / Tumor volume (cm^3): 50 mg/kg iv x7 qd
Description: Only female mice were used in this study. […] The high, middle and low doses of ACEA100108 were 50, […] and 8 mg/kg/d, respectively.
Preparation and Administration of Test Compounds. […] The high, middle and low dose of compound ACEA100108 was 50, 20 and 8 mg/kg, respectively.
The tumor tissues were grounded in normal saline (1:6 for tumor volume to saline volume) and tumor cell suspensions were prepared in the normal saline.
For the human ovarian cancer xenograft model, all used materials, including animal food, animal cage, supporting materials and apparatus contacted by animals, were high-pressure sterilized. Nude mice were maintained in laminar flow shelves under SPF condition. After tumor transplantation, mouse weight and tumor size in each compound dosage group were dynamically monitored and plotted. The tumor size was determined by measuring the major axis (a) and minor axis (b) of the tumor, and tumor volume was calculated according to the equation (3) in Example 3.

[3] = tested on: H460 (human non small cell lung cancer cell line); test: RT-CES system cell proliferation/cytotoxicity, H460; assay type: cell-based; details: NCI-H460, time point of maximum inhibition
Description: In operation, the devices with cells cultured in the wells are placed into a device station that is located inside an incubator. […] Under the RT-CES software control, the sensor analyzer can automatically select wells to be measured and continuously conduct impedance measurements. The impedance data from the analyzer is transferred to a computer, analyzed and processed by the integrated software.
To quantify cell status based on the measured cell-electrode impedance, a parameter termed Cell Index is derived, according to
[formula] where Rb(f) and Rcell(f) are the frequency dependent electrode resistances (a component of impedance) without cells or with cell present, respectively. N is the number of the frequency points at which the impedance is measured. Thus, Cell Index is a quantitative measure of the status of the cells in an electrode-containing well. Under the same physiological conditions, more cells attached on to the electrodes leads to larger Rcell(f) value, leading to a larger value for Cell Index. Furthermore, for the same number of cells present in the well, a change in the cell status such as morphology will lead to a change in the Cell Index. For example, an increase in cell adhesion or cell spreading leads to larger cell-electrode contact area which will lead to an increase in Rcell(f) and thus a larger value for Cell Index.
H460 cells (human lung cancer cells) were seeded into wells of 16× or 96× microtiter plate devices (electronic plates, i.e., the plates comprise microelectrode sensor arrays in the wells of the plate) with an initial seeding density of 8000 cells per well and were pre-incubated in incubator under standard cell culture conditions for about 22 hrs. […] The cell status was monitored prior to and after the compound addition using RT-CES system. […] The cell index was normalized against the cell index values at a time point just after compound addition (about 23 hrs after cell seeding).
For the assay performed on the RT-CES system, the cells were seeded into the 16× or 96× microtiter plate devices (electronic plates, i.e., the plates comprise microelectrode sensor arrays in the wells of the plate) at the seeding density ranging from 5000 cells/well to 15,000 cells/well. The cells were incubated at 5% CO2 and 37° C. for overnight till the cell indices reached the growth phase where the cell index was between 0.8 and 1.2. Serially diluted compounds were then added to the cells followed by dynamic monitoring of the effect of the compounds on the cell proliferation and cytotoxicity. The time-dependent IC50 values for each derivative were calculated based the dose responses of cell index value at different time points after compound treatment.

[4] = tested on: microtubules in COS cells; test: Microtubule network in cultured COS cells (anti-tubulin immunofluorescence, confocal microscopy); assay type: cell-based
[5] = tested on: purified bovine brain tubulin; test: In vitro microtubule assembly assay with pure (MAP-free) tubulin, light scattering OD400; assay type: biochemical; details: all doses (especially prominent at 9 uM)
Description: Microtubule Assembly Assays. Microtubule seeds were synthesized by incubating purified bovine brain tubulin with 1 mM GTP, 10% glycerol and 10% DMSO at 35° C. for 30 minutes, followed by shearing by passing the assembled microtubules 6 times through a 27 gauge needle. Microtubule assembly was assayed by adding 27.5 ul of microtubule seeds to spectrophotometer cuvettes (maintained at 35° C.) containing 247.5 ul purified bovine brain tubulin in a PEM-100 buffer (100 mM Pipes pH=6.8, 1 mM […], 1 mM MgSO4) supplemented with 1 mM GTP (and drug where applicable) and monitoring the OD400 for 2 hours. Since the compounds are dissolved in DMSO and DMSO can have a significant effect on microtubule assembly, DMSO was added to all cuvettes so as to equal the largest volume of drug added to reactions. It should be noted that the initial velocity of the microtubule assembly reactions is so fast that one can not always catch the initial rise on the light scattering profile because it is occurring while samples are being prepared. However, all samples start at the same optical density, since they are identical with the exception of the drug being introduced.

[6] = 25 d (end), listed as ACEA100101

In the case of `c1ccc(CSSSCc2ccccc2)cc1` [DBTS, Dibenzyl trisulfide], the “animal No. beginning/end (survivors)” value [1] is reported as 10/0, the “Average life span X ± SD” value ([1]; observed within 30 days) is reported as 10.6 ± 1.26 and the “Life span ratio %” value ([1]; vs solvent control) is reported as 109.28%. The “TV inhibition rate % T/C” value (HCT-8 human colon cancer) was 32.17%, the “Tumor weight” value (HCT-8 human colon cancer) was 0.825 ± 0.07 g and the “Mouse Body weight” value (HCT-8 human colon cancer; 0 Day (beginning), listed as ACEA100101) was 18.2 g and 18.2 ± 1.2 g. For the same compound, the “Mouse Body weight” value (HCT-8 human colon cancer; 7 d) was 18.8 ± 1 g, the “Mice with palpable tumor / total mice” value (HCT-8 human colon cancer; 7 day after transplantation) was 4/6†† and the “Tumor volume (cm^3)” value (HCT-8 human colon cancer; 7 day after transplantation) was 0.01 cm^3. For the same compound, the “Mouse Body weight” value (HCT-8 human colon cancer; 14 d) was 19.5 ± 1 g, the “Tumor volume (cm^3)” value (HCT-8 human colon cancer; 14 d) was 0.031 ± 0.02 cm^3 and the “Mouse Body weight” value (HCT-8 human colon cancer; 21 d) was 20.7 ± 0.8 g. For the same compound, the “Tumor volume (cm^3)” value (HCT-8 human colon cancer; 21 d) was 0.204 ± 0.03 cm^3, the “Mouse Body weight” value (HCT-8 human colon cancer; [6]) was 23.0 g and 23 ± 1.3 g and the “Tumor volume (cm^3)” value (HCT-8 human colon cancer; [6]) was 0.502 cm^3 and 0.502 ± 0.18 cm^3. The “tumor inhibition rate %” value (HCT-8 human colon cancer; vs solvent control) was 46.08%, the “Body weight of mice” value ([2]; 0 d (beginning), listed as ACEA100101) was 17.3 g and 17.3 ± 1 g and the “Mice with palpable tumor / total mice” value ([2]; 7 D after transplantation) was 2/6. For the same compound, the “Tumor volume (cm^3)” value ([2]; 7 D after transplantation) was 0.01 cm^3, the “Body weight of mice” value ([2]; 7 d) was 17.3 ± 1.4 g and the “Body weight of mice” value ([2]; 14 d) was 18.8 ± 1.2 g. The “Mice with palpable tumor / total mice” value ([2]; 14 d) was 6/6, the “Tumor volume (cm^3)” value ([2]; 14 d) was 0.01 cm^3 and the “Body weight of mice” value ([2]; 21 d) was 19.5 ± 1 g. The “Tumor volume (cm^3)” value ([2]; 21 d) was 0.129 ± 0.01 cm^3, the “Tumor volume (cm^3)” value ([2]; 24 d) was 0.225 ± 0.04 cm^3 and the “Body weight of mice” value ([2]; 24 d (end), listed as ACEA100101) was 21.3 g and 21.3 ± 1.2 g. The “Tumor weight” value ([2]; 50 mg/kg/d iv x7 qd) was 0.602 ± 0.10 g, the “tumor inhibition rate %” value ([2]; 50 mg/kg/d iv x7 qd, vs solvent control) was 57.30% and the IC50 [3] was 11.1 µM. The Microtubule network appearance ([4]; 4 hours exposure) was “The microtubule network is completely disrupted”, the “Cell viability / microtubule network” value ([4]; 24 hours, 6 uM or 18 uM) was “no cells are viable” and the “Effect on extent of microtubule assembly” value [5] was “inhibit the extent of microtubule assembly significantly”.
